In US20090203695A1, “Compounds IV” (Biovitrum AB, priority 2007, published 2009):

Experiments:
JEG-3 cells [1] = experiment: [3H]-thymidine incorporation in JEG-3 cells (JEG-3 protocol); type: cell-based
Procedure: In JEG-3 cells (choriocarcinoma cell line) leptin is able to stimulate proliferation up to 3 fold (Biol. Reprod. (2007) 76: 203-10). […] The radioactivity incorporated by the cells is an index of their proliferative activity and is measured in counts per minute (CPM) with a liquid scintillation beta counter.
This finding can be applied to test whether a compound is able to either reproduce the effect of leptin on cell proliferation (leptin receptor agonist mimetic) (i.e., a given compound will cause an increase in incorporated [^3H]-Thymidine by the cells) or to inhibit the effect of leptin (antagonistic effect) by preventing the leptin-mediated increase in [^3H]-thymidine incorporation.
This approach has the advantage of using a non-recombinant system and has reasonable reproducibility and robustness.

JEG-3 cells [2] = conditions: JEG-3 cells (choriocarcinoma cell line); Biol. Reprod. (2007) 76: 203-10; cited from earlier work

EC50 (JEG-3 cells [1]; FIG. 4, read-out: EC50, increase in [3H]-thymidine incorporation): 2.1 nM
Substance: Leptin: hormone synthesized in fat cells that is believed to act in the hypothalamus to reduce food intake and body weight
concentration of maximal effect on [3H]-thymidine incorporation (JEG-3 cells [1]; FIG. 4): 100 nM | stimulation of proliferation (JEG-3 cells [2]): up to 3 fold
